The source of these data is patent US20250361234A1 (NICO THERAPEUTICS, INC., priority 2022, published 2025).

For the test, the target named is T1, full-length SARM1 (FL-SARM1) (Homo sapiens, UniProt Q6SZW1).
T1 sequence (Q6SZW1 28-724): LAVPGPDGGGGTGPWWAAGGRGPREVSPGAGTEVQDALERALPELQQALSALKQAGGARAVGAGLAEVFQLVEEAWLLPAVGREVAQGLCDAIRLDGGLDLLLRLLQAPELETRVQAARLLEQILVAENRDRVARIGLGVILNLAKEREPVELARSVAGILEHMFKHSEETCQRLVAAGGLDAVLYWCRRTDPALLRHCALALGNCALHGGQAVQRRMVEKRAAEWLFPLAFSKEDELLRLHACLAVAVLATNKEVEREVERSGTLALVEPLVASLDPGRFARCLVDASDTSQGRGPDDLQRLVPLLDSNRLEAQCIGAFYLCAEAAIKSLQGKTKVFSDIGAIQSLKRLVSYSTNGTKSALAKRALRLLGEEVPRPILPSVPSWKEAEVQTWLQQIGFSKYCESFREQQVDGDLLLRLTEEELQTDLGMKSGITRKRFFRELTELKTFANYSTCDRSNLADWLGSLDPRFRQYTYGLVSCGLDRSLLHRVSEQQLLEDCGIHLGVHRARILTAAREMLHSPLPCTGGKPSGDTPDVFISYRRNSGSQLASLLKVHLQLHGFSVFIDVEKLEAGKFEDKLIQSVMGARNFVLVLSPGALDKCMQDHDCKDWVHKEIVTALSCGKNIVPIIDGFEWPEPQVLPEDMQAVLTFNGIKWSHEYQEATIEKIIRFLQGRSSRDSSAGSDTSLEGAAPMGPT
Description: FL-SARM1 cellular lysate assay (NAD/NADH-Glo readout of remaining NAD+). The following applies: SARM1 cellular lysate from transfected HEK293T cells, NAD+ and NMN, 11 point curve.

One may read the IC50 as the concentration needed to halve the response being measured. Read a high IC50 as weaker potency.

With `Cc1ccc(NC(=O)N2C3CCCC2C3)cc1-c1cnc(C)c(F)c1` [Example 89, N-(3-(5-fluoro-6-methylpyridin-3-yl)-4-methylphenyl)-6-azabicyclo[3.1.1]heptane-6-carboxamide], the half-inhibitory concentration (IC50) is 0.4 µM (Activity (μM)) and 0.0001 to 1 µM (Activity).
As to `COc1c(F)cncc1-c1cc(NC(=O)N2C3CCCC2C3)ccc1C` [Example 90, N-(3-(5-fluoro-4-methoxypyridin-3-yl)-4-methylphenyl)-6-azabicyclo[3.1.1]heptane-6-carboxamide], the 50% inhibitory concentration (IC50) reads like this: (Activity (μM)) 1.9 µM; (Activity) 1 to 10 µM.
The corresponding values for `Cc1ccncc1-c1cc(NC(=O)N2C3CCCC2C3)ccc1C` [Example 91, N-(4-methyl-3-(4-methylpyridin-3-yl)phenyl)-6-azabicyclo[3.1.1]heptane-6-carboxamide] are 0.4 µM and 0.0001 to 1 µM.
For the molecule `Cc1ccc(NC(=O)N2C3CCCC2C3)cc1-c1cncc(F)c1C` [Example 92, N-(3-(5-fluoro-4-methylpyridin-3-yl)-4-methylphenyl)-6-azabicyclo[3.1.1]heptane-6-carboxamide], the IC50 reads like this: (Activity (μM)) 0.5 µM; (Activity) 0.0001 to 1 µM.
For `Cc1ccc(NC(=O)N2C3CCCC2(C(=O)N2CCCC2)C3)cc1-c1cncc(F)c1` (stereo not drawn) [Example 93, N-[3-(5-fluoropyridin-3-yl)-4-methylphenyl]-1-(pyrrolidine-1-carbonyl)-6-azabicyclo[3.1.1]heptane-6-carboxamide], the half-inhibitory concentration (IC50) is, setting by setting: (Activity (μM)) 4.4 µM; (Activity) 1 to 10 µM.
Consider `Cc1ccc(NC(=O)N2C3CCC2COC3)cc1-c1cncc(F)c1` [Example 94, N-[3-(5-fluoropyridin-3-yl)-4-methylphenyl]-3-oxa-8-azabicyclo[3.2.1]octane-8-carboxamide], for which the 50% inhibitory concentration (IC50) is 2.8 µM (Activity (μM)) and 1 to 10 µM (Activity).
Molecule `Cc1ccc(NC(=O)N2CC3CC2c2ccccc23)cc1-c1cncc(F)c1` (stereo not drawn) [Example 95, N-[3-(5-fluoropyridin-3-yl)-4-methylphenyl]-9-azatricyclo[6.2.1.02,7]undeca-2,4,6-triene-9-carboxamide] came in with an IC50 (Activity (μM)) of 0.2 µM and an IC50 (Activity) of 0.0001 to 1 µM.
Turning to `Cc1ccc(NC(=O)N2C3CCCC2(C#N)C3)cc1-c1cncc(F)c1` (stereo not drawn) [Example 96, 1-cyano-N-[3-(5-fluoropyridin-3-yl)-4-methylphenyl]-6-azabicyclo[3.1.1]heptane-6-carboxamide], the half-inhibitory concentration (IC50) by setting is: (Activity (μM)) 0.07 µM; (Activity) 0.0001 to 1 µM.
Molecule `Cc1ccc(NC(=O)N2C3CCC2CC3)cc1-c1cncc(F)c1` [Example 97, N-[3-(5-fluoropyridin-3-yl)-4-methylphenyl]-7-azabicyclo[2.2.1]heptane-7-carboxamide] yielded an IC50 (Activity (μM)) of 0.4 µM and an IC50 (Activity) of 0.0001 to 1 µM.
On to `Cc1nnc(C23CCCC(C2)N3C(=O)Nc2ccc(C)c(-c3cncc(F)c3)c2)o1` (stereo not drawn) [Example 98, N-[3-(5-fluoro-3-pyridyl)-4-methyl-phenyl]-1-(5-methyl-1,3,4-oxadiazol-2-yl)-6-azabicyclo[3.1.1]heptane-6-carboxamide], for which the IC50 is 0.2 µM (Activity (μM)) and 0.0001 to 1 µM (Activity).
Take `Cc1ccc(NC(=O)[C@H]2C[C@H](C3CC3(F)F)C2)cc1-c1cccnc1` (stereo partly drawn) [Example 99, trans-3-(2,2-difluorocyclopropyl)-N-(4-methyl-3-pyridin-3-ylphenyl)cyclobutane-1-carboxamide]: the IC50 was 5.1 µM (Activity (μM)) and 1 to 10 µM (Activity).
For the molecule `Cc1ccc(NC(=O)[C@H]2C[C@@H](C3CC3(F)F)C2)cc1-c1cccnc1` (stereo partly drawn) [Example 100, cis-3-(2,2-difluorocyclopropyl)-N-(4-methyl-3-pyridin-3-ylphenyl)cyclobutane-1-carboxamide], the 50% inhibitory concentration (IC50) is 1.5 µM (Activity (μM)) and 1 to 10 µM (Activity).
The like results for `Cc1ccc(NC(=O)C2C3CC2CN(CC(F)(F)F)C3)cc1-c1cncc(F)c1` (stereo not drawn) [Example 101, N-[3-(5-fluoropyridin-3-yl)-4-methylphenyl]-3-(2,2,2-trifluoroethyl)-3-azabicyclo[3.1.1]heptane-6-carboxamide] were, in that order, 0.8 µM and 0.0001 to 1 µM.
The like results for `Cc1ccc(NC(=O)[C@H]2C[C@@](C#N)(C3CC3)C2)cc1-c1cncc(F)c1` [Example 106, trans-3-cyano-3-cyclopropyl-N-[3-(5-fluoropyridin-3-yl)-4-methylphenyl]cyclobutane-1-carboxamide] were, in that order, 0.6 µM and 0.0001 to 1 µM.
Turning to `Cc1ccc(NC(=O)[C@H]2C[C@](C#N)(C3CC3)C2)cc1-c1cncc(F)c1` [Example 107, cis-3-cyano-3-cyclopropyl-N-[3-(5-fluoropyridin-3-yl)-4-methylphenyl]cyclobutane-1-carboxamide], the half-inhibitory concentration (IC50) is, setting by setting: (Activity (μM)) 38.9 µM; (Activity) above 10 µM.
Turning to `Cc1ccc(NC(=O)[C@H]2C[C@H](C3CC3)C2)cc1-c1cncc(F)c1` [Example 108, trans-3-cyclopropyl-N-[3-(5-fluoropyridin-3-yl)-4-methylphenyl]cyclobutane-1-carboxamide], the half-maximal inhibitory concentration (IC50) by setting is: (Activity (μM)) 5.3 µM; (Activity) 1 to 10 µM.
As for `Cc1ccc(NC(=O)[C@H]2C[C@@H](C3CC3)C2)cc1-c1cncc(F)c1` [Example 109, cis-3-cyclopropyl-N-[3-(5-fluoropyridin-3-yl)-4-methylphenyl]cyclobutane-1-carboxamide], the IC50 is, setting by setting: (Activity (μM)) 0.5 µM; (Activity) 0.0001 to 1 µM.
As to `Cc1ccc(NC(=O)[C@@H]2CC2(F)F)cc1-c1cncc(F)c1` [Example 110, (S)-2,2-difluoro-N-(3-(5-fluoropyridin-3-yl)-4-methylphenyl)cyclopropanecarboxamide], the concentration for half-maximal inhibition (IC50) (Activity (μM)) was 8.2 µM and the IC50 (Activity) is 1 to 10 µM.
For the molecule `Cc1ncc(-c2cc(NC(=O)[C@@H]3CC3(F)F)ccc2C)cn1` [Example 111, (1S)-2,2-difluoro-N-[4-methyl-3-(2-methylpyrimidin-5-yl)phenyl]cyclopropane-1-carboxamide], the IC50 runs as follows: (Activity (μM)) 20.4 µM; (Activity) above 10 µM.
The corresponding values for `Cc1ccc(NC(=O)[C@@H]2CC2(F)F)cc1-c1cccnc1C` [Example 112, (1S)-2,2-difluoro-N-[4-methyl-3-(2-methylpyridin-3-yl)phenyl]cyclopropane-1-carboxamide] are 33.3 µM and above 10 µM.
On to `Cc1ccc(NC(=O)[C@@H]2CC2(F)F)cc1-c1cnc(C(F)(F)F)nc1` [Example 113, (1S)-2,2-difluoro-N-[4-methyl-3-[2-(trifluoromethyl)pyrimidin-5-yl]phenyl]cyclopropane-1-carboxamide], for which the IC50 by setting is: (Activity (μM)) 34.4 µM; (Activity) above 10 µM.
Take `Cc1ccc(NC(=O)CC2CCC2)cc1-c1cccnc1` [Example 114, 2-cyclobutyl-N-(4-methyl-3-pyridin-3-ylphenyl)acetamide]: the half-maximal inhibitory concentration (IC50) runs as follows: (Activity (μM)) 4.3 µM; (Activity) 1 to 10 µM.
For the molecule `Cc1cncc(-c2cc(NC(=O)N3C4CCCC3C4)ccc2C)c1` [Example 115, N-[4-methyl-3-(5-methylpyridin-3-yl)phenyl]-6-azabicyclo[3.1.1]heptane-6-carboxamide], the IC50 was 0.1 µM (Activity (μM)) and 0.0001 to 1 µM (Activity).
In the case of `Cc1ccc(NC(=O)N2C3CCCC2C3)cc1-c1cncc(C(F)(F)F)c1` [Example 116, N-[4-methyl-3-[5-(trifluoromethyl)pyridin-3-yl]phenyl]-6-azabicyclo[3.1.1]heptane-6-carboxamide], the concentration for half-maximal inhibition (IC50) by setting is: (Activity (μM)) 0.1 µM; (Activity) 0.0001 to 1 µM.
For the molecule `Cc1ccc(NC(=O)N2C3CCCC2C3)cc1-c1cncc(Cl)c1` [Example 117, N-[3-(5-chloro-3-pyridyl)-4-methyl-phenyl]-6-azabicyclo[3.1.1]heptane-6-carboxamide], the IC50 by setting is: (Activity (μM)) 0.03 µM; (Activity) 0.0001 to 1 µM.
Consider `Cc1ccc(NC(=O)CC2CCC2)cc1-c1cncnc1` [Example 118, 2-cyclobutyl-N-(4-methyl-3-pyrimidin-5-ylphenyl)acetamide], for which the IC50 runs as follows: (Activity (μM)) 13.9 µM; (Activity) above 10 µM.
As to `Cc1ccc(NC(=O)OC2CCC2)cc1-c1cncc(F)c1` [Example 126, cyclobutyl (3-(5-fluoropyridin-3-yl)-4-methylphenyl)carbamate], the IC50 reads like this: (Activity (μM)) 20.7 µM; (Activity) above 10 µM.
`Cc1ccc(NC(=O)OC2CCC2)cc1-c1cccnc1` [Example 129, cyclobutyl N-(4-methyl-3-pyridin-3-ylphenyl)carbamate] yielded an IC50 (Activity (μM)) of 30.9 µM and a half-maximal inhibitory concentration (IC50) (Activity) above 10 µM.
The corresponding values for `Cc1ccc(NC(=O)N2C3CCCC2C3)cc1-c1cnnnc1` [Example 130] are 15.5 µM and above 10 µM.
With `COc1ccc(-c2cc(NC(=O)N3[C@@H]4C[C@@H](C)C[C@H]3C4)c(F)cc2Cl)cn1` [Example 131, cis-N-[4-chloro-2-fluoro-5-(6-methoxy-3-pyridinyl)phenyl]-3-methyl-6-azabicyclo[3.1.1]heptane-6-carboxamide], the half-inhibitory concentration (IC50) is, setting by setting: (Activity (μM)) 0.7 µM; (Activity) 0.0001 to 1 µM.
